From publication PMC8012336, “An automated and high-throughput-screening compatible pluripotent stem cell-based test platform for developmental and reproductive toxicity assessment of small molecule compounds” (Cell Biology and Toxicology, 2020)
≈ marks a conversion by molar mass, not a printed value. Read-outs that look alike come from different tables or passages of the source.

Experiments:
[1] = system: mESC-D3; assay: Manual MTT cell viability assay, 7 d; assay type: cell-based, mouse
Procedure: (§1) The MTT cell viability assay was performed as described (Seiler and Spielmann [2011]) with modifications. In brief, 96-well cell culture plates were coated with gelatin (0.1%) before plating mESC-D3. All peripheral wells of the assay plate were filled with 200 μl growth media (“blank”). Afterward, NIH/3T3 and mESC-D3 were plated in growth media (1 × 10^4 cells/ml, 50 μl/well). […] Vehicle (PBS) and positive control (5-fluorouracil) wells were also included on all assay plates. Three and 5 days after seeding the cell supernatant was replaced by freshly prepared compound solution (200 μl/well). Seven days after seeding the cell viability was detected. Therefore, the cell supernatant was aspirated from all wells, MTT solution (5 mg/ml) was added (20 μl/well) and the assay plate was incubated for 2 h at 37 °C and 5% CO2 in a humidified atmosphere. Afterward, all liquid was removed from the wells and MTT desorb solution (0.7% SDS in 2-propanol (Carl Roth, Cat. No. 9866.5), pre-warmed to 37 °C) was dispensed (130 μl/well). The assay plate was placed on a shaker for 15 min. Remaining precipitates were suspended by pipetting up and down with a multichannel pipette before measuring the absorption at 570 nm on a microtiter plate reader using 630 nm as a reference wavelength.
(§2) Toxicity data from the MTT and CellTiter-Glo Assay was normalized against the vehicle control (100% viability) and plotted against the logarithmic compound concentration.

[2] = system: NIH/3T3; assay: Manual MTT cell viability assay, 7 d; assay type: cell-based, mouse
Procedure: as §1, §2

[3] = system: mESC-D3; assay: Automated CellTiter-Glo luminescent cell viability (cytotoxicity) assay, 5 d
Procedure: (§3) The CellTiter-Glo® luminescent cell viability assay (Promega, Cat. No. G7573) was automated in 96-well format on the lab automation platform Fluent® (Tecan, Männedorf, Switzerland). The procedure allowed the testing of six compounds in mESC-D3 and NIH/3T3 cells in parallel. On the first day, PBS was dispensed into the peripheral wells of the assay plates (200 μl/well) using the Multiple Channel Arm (MCA). Mouse ES-D3 and NIH/3T3 cells were plated (50 μl/well, 1 × 10^4 cells/ml)) using the Flexible Channel Arm (FCA) and transported into the Cytomat™ 10 (Thermo Fisher Scientific) for incubation using the Robotic Gripper Arm (RGA). A 7-point dilution series of the test compounds and control solutions were prepared in PBS or DMSO (Carl Roth, Cat. No. HN47.1) under the laminar flow, transferred to a 96-well 0.5-ml Masterblock plate (Greiner bio-one, Cat. No. 786261) and placed on the worktable. On the Fluent the compounds were transferred to a 96-well 2-ml Masterblock plate (Greiner bio-one, Cat. No. 780271) and further diluted in growth media using the FCA. Two hours after cell plating compounds and controls were transferred to the assay plate with the FCA (150 μl/well) and transported back in the Cytomat 10. On day three of the assay, the media was exchanged using the MCA: old media was aspirated and dispensed into a 96-deep-well plate (“waste”), freshly prepared compound, and control solution was dispensed into the assay plate. After two more days of incubation, the cell viability was determined using the CellTiter-Glo assay. The assay plates were transported from the Cytomat 10 to the Carousel (Tecan) to adapt to room temperature. After 25 min the cell supernatant was removed partially (80 μl/well) and CellTiter-Glo reagent was dispensed (50 μl/well). The assay plate was placed on a shaker for 1 min and afterward incubated 25 min in the Carousel before the Luminescence signal was detected on the Infinite M1000 Pro plate reader (Tecan).
as §2

[4] = Manual MTT cell viability assay, 7 d; assay type: cell-based, mouse; conditions: mouse, manual, in brackets the two individual experiments
Procedure: as §1, §2

[5] = Automated CellTiter-Glo luminescent cell viability (cytotoxicity) assay, 5 d; conditions: mouse
Procedure: as §3, §2

Structure (SMILES) | Cytotoxicity assay MTT, 7 d IC50 mESC-D3 [1] | Cytotoxicity assay MTT, 7 d IC50 NIH/3T3 [2] | Cytotoxicity assay CTG, 5 d IC50 mESC-D3 [3] | IC50 at 7 d ([4]; NIH/3T3 cells, read-out: Cytotoxicity assay MTT, 7 d IC50 NIH/3T3) [µg/mL] | IC50 at 7 d ([4]; mESC-D3 cells, read-out: Cytotoxicity assay MTT, 7 d IC50 mESC-D3) [µg/mL] | IC50 at 5 d ([5]; NIH/3T3 cells) [µg/mL] | IC50 at 5 d ([5]; mESC-D3 cells (mouse embryonic stem cells)) [µg/mL]
NC(=O)NO [Hydroxyurea, hydroxyurea] | 2.11 (2.08; 2.15) µg/ml | 2.17 (1.81; 2.53) µg/ml | 2.28 (1.69; 2.87) μg/ml | – | – | – | –
O=C1NS(=O)(=O)c2ccccc21 [Saccharin, saccharin] | – | – | – | > 1000 | > 1000 | > 1000 | 393 (≈ 2.15 mM)
